Where “and” joins values, the source holds several entries; their conditions need not be identical. Equal entries are not always repeated. Where two headings read alike, the source gives them in different places.
Experiments:
MCF-7 = assay: 3H-TdR (3H-thymidine) incorporation assay at 72 hr; type: cell-based, Human; settings: 3H-TdR incorporation at 72 hr
CCRF-CEM = assay: 3H-TdR (3H-thymidine) incorporation assay at 72 hr; type: cell-based; settings: 3H-TdR incorporation at 72 hr
Protocol: (§1) Table of IC50 Values (μM) for Controls
(§2) Exposition of 24 hr to drug, wash, incubated for another 48 hr (total of 72 hr assay)
(§3) (3H-Thymidine Incorporation Assay)

CEM/dCK- [1] = assay: 3H-TdR (3H-thymidine) incorporation assay at 72 hr; type: cell-based; settings: for IC50: deoxycytidine kinase-deficient CCRF-CEM; for Factor* (Resistance Factor = Ratio of dCK- on Wild-type CCRF-CEM): ratio of IC50 CEM/dCK- to CCRF-CEM, 24 h
Protocol: as §1, §2, §3

SF-268 = assay: 3H-TdR (3H-thymidine) incorporation assay at 72 hr; type: cell-based, Human; settings: 3H-TdR incorporation at 72 hr
H-460 = assay: 3H-TdR (3H-thymidine) incorporation assay at 72 hr; type: cell-based, Human; settings: 3H-TdR incorporation at 72 hr
CEM/dCK- [2] = assay: 3H-TdR incorporation at 72 hr (24 hr drug exposure, wash, 48 hr); type: cell-based; settings: read-out: IC50 in μM (3H-TdR incorporation at 72 hr) CEM/dCK- 24 h; CCRF-CEM deoxycytidine kinase-deficient; 24 h drug exposure, 72 hr assay
Protocol: as §2, §3

[3] = Homo sapiens, MCF7, read-out: IC50 MCF-7 24 h, 24 h drug exposure, wash, another 48 hr
[4] = read-out: IC50 MCF-7 24 h, 24 h drug exposure, wash, another 48 hr
[5] = Homo sapiens, CCRF-CEM, read-out: IC50 CCRF-CEM 24 h, 24 h drug exposure, wash, another 48 hr
[6] = read-out: IC50 CCRF-CEM 24 h, 24 h drug exposure, wash, another 48 hr
[7] = Homo sapiens, CCRF-CEM, read-out: IC50 CEM/dCK- 24 h, 24 h drug exposure, wash, another 48 hr
[8] = Homo sapiens, SF-268, read-out: IC50 SF-268 24 h, 24 h drug exposure, wash, another 48 hr
[9] = Homo sapiens, NCI-H460, read-out: IC50 H-460 24 h, 24 h drug exposure, wash, another 48 hr
[10] = read-out: IC50 H-460 24 h, 24 h drug exposure, wash, another 48 hr
[11] = read-out: IC50 CEM/dCK- 24 h, 24 h drug exposure, wash, another 48 hr
[12] = read-out: IC50 SF-268 24 h, 24 h drug exposure, wash, another 48 hr

Row | Compound | IC50 (MCF-7; [3]) [nM] | IC50 (MCF-7; [4]) | IC50 (CCRF-CEM; [5]) [nM] | IC50 (CEM/dCK- [1]; [7]) [nM] | IC50 (H-460; [9]) [nM] | also measured
1 | CC(=O)OC[C@H]1OC[C@@H](n2ccc(N)nc2=O)O1 [Compound 27] | – | – | – | – | – | IC50 (MCF-7; read-out: IC50 MCF-7 (72 h), 72 h exposure): 7.3 nM; IC50 (SF-268; read-out: IC50 SF-268 (72 h), 72 h exposure): 23 nM; IC50 (H-460; read-out: IC50 H-460 (72 h), 72 h exposure): 5.3 nM
2 | CC(C)(C)OC(=O)N(CCCCCC(=O)OC[C@H]1OC[C@@H](n2ccc(N)nc2=O)O1)Cc1ccccc1 [Compound 66, 6-(Benzyl-tert-butoxycarbonyl-amino)-hexanoic acid 4-(4-amino-2-oxo-2H-pyrimidin-1-yl)-[1,3]dioxolan-2-ylmethyl ester] | < 0.1 | 0.074 nM | – | – | – | –
3 | Cc1cccc(C)c1C(=O)OC[C@H]1OC[C@@H](n2ccc(/N=C\N(C)C)nc2=O)O1 [Compound 87, (2S,4S)-2-(2″,6″- DIMETHYLBENZOYLOXYMETHY L)-4-(4′-N,N- DIMETHYLAMINOMETHLYENE- CYTOSIN-1′-YL)-1,3- DIOXOLANE] | – | – | – | > 100000 | – | –
4 | CC(C)[C@@H]1CC[C@@H](C)C[C@H]1OC(=O)OC[C@H]1OC[C@@H](n2ccc(N)nc2=O)O1 [Compound 95, Carbonic acid 4-(4-amino-2-oxo-2#H!- pyrimidin-1-yl)-[1,3]dioxolan-2-ylmethyl ester 2-isopropyl-5-methyl-cyclohexyl ester] | 150 | 100 nM | – | – | < 0.1 | –
5 | CCCCOC(C)OC[C@H]1OC[C@@H](n2ccc(N)nc2=O)O1 (some centres unmarked) [Compound 97, 4-AMINO-1-[2-(1-BUTOXY- ETHOXYMETHYL)- [1,3]DIOXOLAN-4-YL]-1H- PYRIMIDIN-2-ONE] | 5000 | 4000 nM | 9200 | > 100000 | 22000 | IC50 (CCRF-CEM; [6]): 5900 nM
6 | Nc1ccn([C@@H]2CO[C@H](COCc3ccccc3)O2)c(=O)n1 [Compound 98, (2S,4S) 4-AMINO-1-(2- BENZYLOXYMETHYL- [1,3]DIOXOLAN-4-YL)-1H- PYRIMIDIN-2-ONE] | 130 | 150 nM and 220 nM | – | > 100000 | – | –
7 | CC(C)c1cc(C(C)C)c(C(=O)OC[C@H]2OC[C@@H](n3ccc(N)nc3=O)O2)c(C(C)C)c1 [Compound 100, 2,4,6-Triisopropyl-benzoic acid 4-(4-amino-2-oxo-2H-pyrimidin-1-yl)-[1,3]dioxolan-2-ylmethyl ester] | – | – | – | – | 30 | IC50 (H-460; [10]): 44 nM
8 | CC(C(=O)OC[C@H]1OC[C@@H](n2ccc(N)nc2=O)O1)c1ccccc1.Cl (some centres unmarked) [Compound 106] | – | – | – | – | – | Factor* (Resistance Factor = Ratio of dCK- on Wild-type CCRF-CEM) (CEM/dCK- [1]): 4,600
9 | CCCCCCN(CCCCCC)C(=O)OC[C@H]1OC[C@@H](n2ccc(N)nc2=O)O1 [Compound 135, DIHEXYLCARBAMIC ACID 4(S)-(4′-AMINO-2′-OXO- 2H-PYRIMIDIN-1′-YL)- [1,3]DIOXOLAN-2(S)- YLMETHYL ESTER] | – | – | – | – | – | IC50 (SF-268; [8]): 250 nM
10 | CC(CCCCN(Cc1ccccc1)C(=O)OC(C)(C)C)C(=O)OC[C@H]1OC[C@@H](n2ccc(/N=C/N(C)C)nc2=O)O1 (some centres unmarked) [Compound 149, 6-(Benzyl-tert-butoxycarbonyl-amino)-methyl-hexanoic acid 4-[4-(dimethylamino-methyleneamino)-2-oxo-2H-pyrimidin-1-yl]-[1,3]dioxolan-2-ylmethyl ester] | – | – | < 0.1 | 2000 | – | IC50 (CCRF-CEM; [6]): 0.12 nM; IC50 (CEM/dCK- [1]; [11]): > 1800 nM
11 | CC(C)(C(=O)OC[C@H]1OC[C@@H](n2ccc(N)nc2=O)O1)c1ccccc1[N+](=O)[O-] [Compound 155, (2S,4S)-2-[2″-(2″′- NITROPHENYL)-2″- METHYLPROPIONYLOXYMETHY L]-4-CYTOSIN-1′-YL-1,3- DIOXOLANE] | – | – | – | > 100000 | – | –
12 | CN(C)/C=N/c1ccn([C@@H]2CO[C@H](COC(=O)C(C)(C)CCC(=O)N(Cc3ccccc3)C(=O)OC(C)(C)C)O2)c(=O)n1 [Compound 166, 5-(Benzyl-tert-butoxycarbonyl-amino)-2,2-dimethyl-5-oxo-pentanoic acid 4-[4-(dimethylamino-methyleneamino)-2-oxo-2H-pyrimidin-1-yl]-[1,3]dioxolan-2-ylmethyl ester] | – | – | – | – | – | IC50 (CEM/dCK- [2]): 10 µM

More lines, main results first:

Row | IC50 (MCF-7; [3]) [nM] | IC50 (MCF-7; [4]) | IC50 (CCRF-CEM; [5]) [nM] | IC50 (CEM/dCK- [1]; [7]) [nM] | IC50 (H-460; [9]) [nM] | Compound | also measured
13 | 190 | 210 nM | 1800 | > 100000 | – | CCCCC(C)C(=O)Nc1ccn([C@@H]2CO[C@H](CO)O2)c(=O)n1 (stereo in doubt) [Compound 96, 2-METHYL-HEXANOIC ACID [1-(2-HYDROXYMETHYL- [1,3]DIOXOLAN-4-YL)-2- OXO-1,2-DIHYDRO- PYRIMIDIN-4-YL]-AMIDE] | IC50 (CCRF-CEM; [6]): 1900 nM
14 | 6300 | – | 5000 | > 100000 | – | CCCCC(CC)C(=O)Nc1ccn([C@@H]2CO[C@H](CO)O2)c(=O)n1 (stereo in doubt) [Compound 99, 2-ETHYL-HEXANOIC ACID [1-(2-HYDROXYMETHYL- [1,3]DIOXOLAN-4-YL)-2- OXO-1,2-DIHYDRO- PYRIMIDIN-4-YL]-AMIDE] | Factor* (Resistance Factor = Ratio of dCK- on Wild-type CCRF-CEM) (CEM/dCK- [1]): >20; IC50 (SF-268; [8]): 33000 nM
15 | – | – | – | > 100000 | 340 | CCCCNC(=O)OC[C@H]1OC[C@@H](n2ccc(N)nc2=O)O1 [Compound 48, BUTYL-CARBAMIC ACID 4- (4-AMINO-2-OXO-2H- PYRIMIDIN-1-YL)- [1,3]DIOXOLAN-2- YLMETHYL ESTER] | IC50 (H-460; [10]): 590 nM
16 | 860 | 950 nM | 290 | 2900 | 2000 | CC(C)(C(=O)Nc1ccn([C@@H]2CO[C@H](CO)O2)c(=O)n1)c1ccccc1[N+](=O)[O-] [Compound 60, (2S,4S)--2- HYDROXYMETHYL-4-N-[2″- (2″′-NITROPHENYL)-2″- METHYLPROPIONYL]- CYTOSINE-1′-YL-1,3- DIOXOLANE] | IC50 (CCRF-CEM; [6]): 310 nM; IC50 (CEM/dCK- [1]; [11]): 1800 nM; IC50 (H-460; [10]): 3100 nM
17 | – | – | – | > 100000 | – | CCCCCCOC(=O)Nc1ccn([C@@H]2CO[C@H](CO)O2)c(=O)n1 [Compound 61, [1-(2-HYDROXYMETHYL- [1,3]DIOXOLAN-4-YL)-2- OXO-1,2-DIHYDRO- PYRIMIDIN-4-YL]- CARBAMIC ACID HEXYL ESTER] | –
18 | 15 | 17 nM | – | 23000 | 18 | CCCCC(C)(C)C(=O)OC[C@H]1OC[C@@H](n2ccc(/N=C\N(C)C)nc2=O)O1 [Compound 72, (2S,4S)-2-(2″- DIMETHYLHEXANOICOXYMETH YL)-4-(4′-N,N- DIMETHYLAMINOMETHYLENE- CYTOSIN-1′-YL)-1,3- DIOXOLANE] | IC50 (SF-268; [8]): 130 nM; IC50 (SF-268; [12]): 75 nM; IC50 (H-460; [10]): 27 nM
19 | – | – | – | > 100000 | – | CCNc1ccn([C@@H]2CO[C@H](COCC)O2)c(=O)n1 [Compound 93, 1-(2′(S)-ETHOXYMETHYL- [1,3]DIOXOLAN-4′(S)- YL)-4-ETHYLAMINO-1H- PYRIMIDIN-2-ONE] | IC50 (SF-268; [8]): > 100000 nM
20 | 24000 | 13000 nM | – | 51000 | – | CC(C)[C@@H]1CC[C@@H](C)C[C@H]1OC(=O)Nc1ccn([C@@H]2CO[C@H](CO)O2)c(=O)n1 [Compound 94, [1-(2-Hydroxymethyl-[1,3]dioxolan-4-yl)-2-oxo-1,2-dihydro-pyrimidin-4-yl]-carbamic acid 2-isopropyl-5-methyl-cyclohexyl ester] | IC50 (CEM/dCK- [1]; [11]): 85000 nM
21 | 16000 | 15000 nM | 15000 | > 100000 | – | CC(C)c1ccc(NC(=O)OC[C@H]2OC[C@@H](n3ccc(N)nc3=O)O2)cc1 [Compound 127, (4-ISOPROPYL-PHENYL)- CARBAMIC ACID 4-(4- AMINO-2-OXO-2H- PYRIMIDIN-1-YL)- [1,3]DIOXOLAN-2- YLMETHYL ESTER] | IC50 (CCRF-CEM; [6]): 22000 nM
22 | – | – | 5000 | 84000 | – | CCCCCCCCCCNC(=O)OC[C@H]1OC[C@@H](n2ccc(N)nc2=O)O1 [Compound 137, DECYL-CARBAMIC ACID 4- (4-AMINO-2-OXO-2H- PYRIMIDIN-1-YL)- [1,3]DIOXOLAN-2- YLMETHYL ESTER] | IC50 (CCRF-CEM; [6]): 6500 nM; IC50 (CEM/dCK- [1]; [11]): 53000 nM; IC50 (SF-268; [8]): 18400 nM; IC50 (SF-268; [12]): 16000 nM
23 | 240 | – | – | – | 580 | CC(C)(C)C(=O)OC[C@H]1OC[C@@H](n2ccc(N)nc2=O)O1 [Compound 279, 2,2-DIMETHYL-PROPIONIC ACID 4-(4-AMINO-2-OXO- 2H-PYRIMIDIN-1-YL)- [1,3]DIOXOLAN-2-YL METHYL ESTER] | IC50 (MCF-7; Homo sapiens, MCF7, read-out: IC50 MCF-7 (72 h), 72 h exposure): 21 nM; IC50 (SF-268; [8]): 390 nM; IC50 (SF-268; Homo sapiens, SF-268, read-out: IC50 SF-268 (72 h), 72 h exposure): 44 nM; IC50 (H-460; Homo sapiens, NCI-H460, read-out: IC50 H-460 (72 h), 72 h exposure): 73 nM

From US20030013660A1, “Dioxolane analogs for improved inter-cellular delivery” (Shire BioChem Inc., priority 2000, published 2003)
